Molecular target: T1, Cannabinoid-1 receptor (CB1R) (Rattus norvegicus, UniProt P20272)
T1 construct: The tissue obtained from the brain of SD rats was homogenized; from tissue; host or cells: brain of SD rats (membrane pellet of the homogenate)
Test: Cannabinoid-1 receptor (CB1R) binding affinity assay ([3H]CP-55940, rat CB-1 receptor binding protocol)
Settings: IC50(nM), brain tissue of SD rats, [3H]CP-55940, 30° C. 60 min
Experimental: The tissue obtained from the brain of SD rats was homogenized with a Dounce homogenate system in TME (50 mM Tris, 3 mM MgCl2 and 1 mM EDTA, pH 7.4) at 4° C., and the homogenate was centrifuged at 48,000 g for 30 min. at 4° C. The pellet was resuspended in 5 ml of TME and the suspension was divided into aliquots and stored at −70° C. until its use in the following assay.
The tissue concentrations were determined by Bradford protein analysis, and 148 μl of brain tissue of the required concentration was added to the plate. The plate was covered and placed in a 30° C. incubator for 60 min, and then transformed on GF/B filtermat pretreated in polyethylenimine (PEI) using a cell harvester. Each filter was washed five times and dried at 60° C. for 1 hr. Then, the degree of radioactivity retained by the filter was measured using Wallac Microbeta™ (PerkinElmer Life Sciences, Inc., Massachusetts, U.S.A.) and the activity of the compound for inhibiting CB1 receptor was determined therefrom.

T1 sequence (P20272 whole entry): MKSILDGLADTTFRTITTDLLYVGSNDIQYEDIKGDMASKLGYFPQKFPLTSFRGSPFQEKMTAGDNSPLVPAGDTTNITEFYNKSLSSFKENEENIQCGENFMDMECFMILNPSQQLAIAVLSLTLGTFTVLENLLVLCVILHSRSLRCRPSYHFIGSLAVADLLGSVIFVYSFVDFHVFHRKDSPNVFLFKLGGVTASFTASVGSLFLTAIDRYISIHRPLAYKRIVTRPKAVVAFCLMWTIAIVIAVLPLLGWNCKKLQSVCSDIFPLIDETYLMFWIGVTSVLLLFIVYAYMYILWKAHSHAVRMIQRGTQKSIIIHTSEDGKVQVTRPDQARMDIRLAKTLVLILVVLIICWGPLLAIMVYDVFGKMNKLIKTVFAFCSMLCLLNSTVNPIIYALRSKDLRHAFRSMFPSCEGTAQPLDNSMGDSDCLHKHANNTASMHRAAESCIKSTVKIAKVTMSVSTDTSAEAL

SMILES | IC50
COc1ccc(C2(c3nnc(-c4nn(-c5ccc(Cl)cc5Cl)c(-c5ccc(Cl)cc5)c4C)o3)CC2)cc1 [Example 129, 2-(5-(4-chlorophenyl)-1-(2,4-dichlorophenyl)-4-methyl-1H-pyrazol-3-yl)-5-(1-(4-methoxyphenyl)cyclopropyl)-1,3,4-oxadiazole] | 9.46 nM
CCc1c(-c2nnc(C3(c4ccccc4)CC3)o2)nn(-c2ccc(Cl)cc2Cl)c1-c1ccc(Br)cc1 [Example 177, 2-(5-(4-bromophenyl)-1-(2,4-dichlorophenyl)-4-ethyl-1H-pyrazol-3-yl)-5-(1-phenylcyclopropyl)-1,3,4-oxadiazole] | 3.01 nM

Same assay, conditions: brain tissue of SD rats, [3H]CP-55940, 30° C. 60 min; read-out: IC50

SMILES | IC50
Cc1c(-c2nnc(C3(c4ccc(Cl)cc4)CC3)o2)nn(-c2ccc(Cl)cc2)c1-c1ccc(Cl)cc1 [Example 119, 2-(1,5-Bis(4-chlorophenyl)-4-methyl-1H-pyrazol-3-yl)-5-(1-(4-chlorophenyl)cyclopropyl)-1,3,4-oxadiazole] | 550 nM
Cc1c(-c2nnc(C3(c4ccc(Cl)cc4Cl)CC3)o2)nn(-c2ccc(Cl)cc2Cl)c1-c1ccc(Cl)cc1 [Example 130, 2-(5-(4-chlorophenyl)-1-(2,4-dichlorophenyl)-4-methyl-1H-pyrazol-3-yl)-5-(1-(2,4-dichlorophenyl)cyclopropyl)-1,3,4-oxadiazole] | 8.14 nM
Cc1ccc(C2(c3nnc(-c4nn(-c5ccc(Cl)cc5Cl)c(-c5ccc(Cl)cc5)c4C)o3)CC2)cc1 [Example 131, 2-(5-(4-chlorophenyl)-1-(2,4-dichlorophenyl)-4-methyl-1H-pyrazol-3-yl)-5-(1-p-tolylcyclopropyl)-1,3,4-oxadiazole] | 7.26 nM
CCc1c(-c2nnc(C3(c4ccc(Cl)cc4)CC3)o2)nn(-c2ccc(Cl)cc2Cl)c1-c1ccc(Cl)cc1 [Example 133, 2-(5-(4-chlorophenyl)-1-(2,4-dichlorophenyl)-4-ethyl-1H-pyrazol-3-yl)-5-(1-(4-chlorophenyl)cyclopropyl)-1,3,4-oxadiazole] | 5.47 nM
Cc1c(-c2nnc(C3(C(F)(F)F)CCC3)o2)nn(-c2ccc(Cl)cc2Cl)c1-c1ccc(Cl)cc1 [Example 135, 2-(5-(4-chlorophenyl)-1-(2,4-dichlorophenyl)-4-methyl-1H-pyrazol-3-yl)-5-(1-(trifluoromethyl)cyclobutyl)-1,3,4-oxadiazole] | 16.3 nM
Cc1c(-c2nnc(CC(F)(F)F)o2)nn(-c2ccc(Cl)cc2Cl)c1-c1ccc(Cl)cc1 [Example 136, 2-(5-(4-chlorophenyl)-1-(2,4-dichlorophenyl)-4-methyl-1H-pyrazol-3-yl)-5-(2,2,2-trifluoroethyl)-1,3,4-oxadiazole] | 74.2 nM
Cc1c(-c2nnc(C3(c4ccc(Cl)cc4)CCC3)o2)nn(-c2cccc(Cl)c2Cl)c1-c1ccc(Cl)cc1 [Example 137, 2-(5-(4-chlorophenyl)-1-(2,3-dichlorophenyl)-4-methyl-1H-pyrazol-3-yl)-5-(1-(4-chlorophenyl)cyclobutyl)-1,3,4-oxadiazole] | 141 nM
COc1ccc(-c2c(C)c(-c3nnc(C4(c5ccc(Cl)cc5)CC4)o3)nn2-c2ccc(Cl)cc2Cl)cc1 [Example 138, 2-(1-(4-chlorophenyl)cyclopropyl)-5-(1-(2,4-dichlorophenyl)-5-(4-methoxyphenyl)-4-methyl-1H-pyrazol-3-yl)-1,3,4-oxadiazole] | 10 nM
CCc1c(-c2nnc(C3(c4ccc(Cl)cc4)CC3)o2)nn(-c2ccccc2Cl)c1-c1ccc(Cl)cc1 [Example 144, 2-(1-(2-chlorophenyl)-5-(4-chlorophenyl)-4-ethyl-1H-pyrazol-3-yl)-5-(1-(4-chlorophenyl)cyclopropyl)-1,3,4-oxadiazole] | 2.16 nM
CCc1c(-c2nnc(C3(c4ccc(Cl)cc4)CCC3)o2)nn(-c2ccccc2Cl)c1-c1ccc(Cl)cc1 [Example 147, 2-(1-(2-chlorophenyl)-5-(4-chlorophenyl)-4-ethyl-1H-pyrazol-3-yl)-5-(1-(4-chlorophenyl)cyclobutyl)-1,3,4-oxadiazole] | 5.75 nM
CCc1c(-c2nnc(C3(c4ccccc4)CC3)o2)nn(-c2ccc(Cl)cc2Cl)c1-c1ccc(Cl)cc1 [Example 150, 2-(5-(4-chlorophenyl)-1-(2,4-dichlorophenyl)-4-ethyl-1H-pyrazol-3-yl)-5-(1-phenylcyclopropyl)-1,3,4-oxadiazole] | 6.05 nM
CCc1c(-c2nnc(C3(c4ccc(C)cc4)CC3)o2)nn(-c2ccc(Cl)cc2Cl)c1-c1ccc(Cl)cc1 [Example 151, 2-(5-(4-chlorophenyl)-1-(2,4-dichlorophenyl)-4-ethyl-1H-pyrazol-3-yl)-5-(1-p-tolylcyclopropyl)-1,3,4-oxadiazole] | 7.05 nM
CCc1c(-c2nnc(C3(c4ccc(OC)cc4)CC3)o2)nn(-c2ccc(Cl)cc2Cl)c1-c1ccc(Cl)cc1 [Example 152, 2-(5-(4-chlorophenyl)-1-(2,4-dichlorophenyl)-4-ethyl-1H-pyrazol-3-yl)-5-(1-(4-methoxyphenyl)cyclopropyl)-1,3,4-oxadiazole] | 5.62 nM
CCc1c(-c2nnc(C3(c4ccc(Cl)cc4Cl)CC3)o2)nn(-c2ccc(Cl)cc2Cl)c1-c1ccc(Cl)cc1 [Example 153, 2-(5-(4-chlorophenyl)-1-(2,4-dichlorophenyl)-4-ethyl-1H-pyrazol-3-yl)-5-(1-(2,4-dichlorophenyl)cyclopropyl)-1,3,4-oxadiazole] | 5.83 nM
CCc1c(-c2nnc(C3(c4ccc(Cl)cc4)CCC3)o2)nn(-c2ccc(Cl)cc2Cl)c1-c1ccc(Cl)cc1 [Example 154, 2-(5-(4-chlorophenyl)-1-(2,4-dichlorophenyl)-4-ethyl-1H-pyrazol-3-yl)-5-(1-(4-chlorophenyl)cyclobutyl)-1,3,4-oxadiazole] | 7.42 nM
Cc1c(-c2nnc(C3(c4ccc(Cl)cc4)CCC3)o2)nn(-c2ccccc2Br)c1-c1ccc(Cl)cc1 [Example 159, 2-(1-(2-bromophenyl)-5-(4-chlorophenyl)-4-methyl-1H-pyrazol-3-yl)-5-(1-(4-chlorophenyl)cyclobutyl)-1,3,4-oxadiazole] | 7.51 nM
Cc1c(-c2nnc(C3(c4ccc(Cl)cc4)CC3)o2)nn(-c2c(Cl)cccc2Cl)c1-c1ccc(Cl)cc1 [Example 161, 2-(5-(4-chlorophenyl)-1-(2,6-dichlorophenyl)-4-methyl-1H-pyrazol-3-yl)-5-(1-(4-chlorophenyl)cyclopropyl)-1,3,4-oxadiazole] | 52.6 nM
Cc1c(-c2nnc(C3(c4ccc(Cl)cc4)CCC3)o2)nn(-c2c(Cl)cccc2Cl)c1-c1ccc(Cl)cc1 [Example 162, 2-(5-(4-chlorophenyl)-1-(2,6-dichlorophenyl)-4-methyl-1H-pyrazol-3-yl)-5-(1-(4-chlorophenyl)cyclobutyl)-1,3,4-oxadiazole] | 59.2 nM
Cc1c(-c2nnc(C3(c4ccc(Cl)cc4)CC3)o2)nn(-c2cc(Cl)ccc2Cl)c1-c1ccc(Cl)cc1 [Example 167, 2-(5-(4-chlorophenyl)-1-(2,5-dichlorophenyl)-4-methyl-1H-pyrazol-3-yl)-5-(1-(4-chlorophenyl)cyclopropyl)-1,3,4-oxadiazole] | 41.9 nM
Cc1c(-c2nnc(C3(c4ccc(Cl)cc4)CCC3)o2)nn(-c2cc(Cl)ccc2Cl)c1-c1ccc(Cl)cc1 [Example 168, 2-(5-(4-chlorophenyl)-1-(2,5-dichlorophenyl)-4-methyl-1H-pyrazol-3-yl)-5-(1-(4-chlorophenyl)cyclobutyl)-1,3,4-oxadiazole] | 200 nM
COc1ccc(-c2c(C)c(-c3nnc(C4(c5ccc(OC)cc5)CC4)o3)nn2-c2ccc(Cl)cc2Cl)cc1 [Example 172, 2-(1-(2,4-dichlorophenyl)-5-(4-methoxyphenyl)-4-methyl-1H-pyrazol-3-yl)-5-(1-(4-methoxyphenyl)cyclopropyl)-1,3,4-oxadiazole] | 17.9 nM
CCc1c(-c2nnc(C3(c4ccc(Cl)cc4Cl)CC3)o2)nn(-c2ccc(Cl)cc2Cl)c1-c1ccc(Br)cc1 [Example 174, 2-(5-(4-bromophenyl)-1-(2,4-dichlorophenyl)-4-ethyl-1H-pyrazol-3-yl)-5-(1-(2,4-dichlorophenyl)cyclopropyl)-1,3,4-oxadiazole] | 6.97 nM
CCc1c(-c2nnc(C3(c4ccc(OC)cc4)CC3)o2)nn(-c2ccc(Cl)cc2Cl)c1-c1ccc(Br)cc1 [Example 175, 2-(5-(4-bromophenyl)-1-(2,4-dichlorophenyl)-4-ethyl-1H-pyrazol-3-yl)-5-(1-(4-methoxyphenyl)cyclopropyl)-1,3,4-oxadiazole] | 5.71 nM
CCc1c(-c2nnc(C3(c4ccc(C)cc4)CC3)o2)nn(-c2ccc(Cl)cc2Cl)c1-c1ccc(Br)cc1 [Example 176, 2-(5-(4-bromophenyl)-1-(2,4-dichlorophenyl)-4-ethyl-1H-pyrazol-3-yl)-5-(1-p-tolylcyclopropyl)-1,3,4-oxadiazole] | 4.47 nM
CC(C)c1c(-c2nnc(C3(c4ccc(Cl)cc4)CC3)o2)nn(-c2ccc(Cl)cc2Cl)c1-c1ccc(Cl)cc1 [Example 181, 2-(5-(4-chlorophenyl)-1-(2,4-dichlorophenyl)-4-isopropyl-1H-pyrazol-3-yl)-5-(1-(4-chlorophenyl)cyclopropyl)-1,3,4-oxadiazole] | 9.72 nM
CC(C)c1c(-c2nnc(C3(c4ccc(Cl)cc4)CCC3)o2)nn(-c2ccc(Cl)cc2Cl)c1-c1ccc(Cl)cc1 [Example 182, 2-(5-(4-chlorophenyl)-1-(2,4-dichlorophenyl)-4-isopropyl-1H-pyrazol-3-yl)-5-(1-(4-chlorophenyl)cyclobutyl)-1,3,4-oxadiazole] | 22.5 nM

From US7875647B2, “Heteroaryl-pyrazole derivatives as cannabinoid CB1 receptor antagonists” (Green Cross Corporation, priority 2006, dated 2011)
